Measurements published in patent US4321265A, “7α-Methoxycephalosporins” (Toyama Chemical Co., Ltd., priority 1977, dated 1982).
≈ marks a conversion by molar mass, not a printed value. Like-named read-outs stand apart in the source and are kept apart here.

How the values were obtained:
[1] = tested on: Ser. marcescens W-35; assay: Minimum inhibitory concentration (MIC), Heart Infusion agar; assay type: cell-based; settings: Serratia marcescens, W35, 20 h, S. marcescens W-35, read-out: MIC
Procedure: Antibacterial activities of the representative compounds (Ib) of the 7α-methoxycephalosporins according to this invention are shown in Table 1. [drawing 20]
The figures given in Table 1 represent the minimum inhibitory concentration (MIC in mcg/ml) of each compound, which was determined according to the method described in "Chemotherapy (Society of Chemotherapy, Japan), Vol. 16, 98-99 (1968)": A culture obtained by cultivating the test bacterium in a Heart Infusion broth (Eiken Kagaku Co.) was inoculated into a Heart Infusion agar medium (Eiken Kagaku Co.). After 20 hours of the incubation at 37° C., the growth of the bacterium was inspected to determine the minimum inhibitory concentration (MIC in mcg/ml). […]
(1) Minimum inhibitory concentration (MIC in mcg/ml).

[2] = biological target: T1, Cephalosporinase (E. coli GN-5482) (Escherichia coli, UniProt P00811); assay: Stability to β-lactamase, iodometry (Perret); assay type: biochemical; settings: E. coli GN-5482 cephalosporinase; CER = 100; 30° C., pH 7.0
T1 construct: native preparation, details not in excerpts
Procedure: (§1) The stability to β-lactamase was examined by iodometry at 30° C. by the method of Perret (Perret, C. J., "Iodometric assay of penicillinase", Nature, 174, 1012-1013 (1954)), except that a 0.1 M phosphate buffer solution (pH 7.0) was used in place of the 0.2 M phosphate buffer solution (pH 6.5). The stability of each compound was shown in Table 2 in terms of relative degree of hydrolysis, assuming the stability of Cephaloridin (CER) to cephalosporinase as 100 and the stability of Penicillin G (PCG) to penicillinase as 100.

[3] = biological target: T2, Cephalosporinase (S. marcescens W-8) (Serratia marcescens, UniProt P18539); assay: Stability to β-lactamase, iodometry (Perret); assay type: biochemical; settings: S. marcescens W-8 cephalosporinase; CER = 100; 30° C., pH 7.0
T2 construct: native preparation, details not in excerpts
Procedure: as §1

[4] = tested on: Penicillinase (E. coli TK-3); assay: Stability to β-lactamase, iodometry (Perret); assay type: biochemical; settings: E. coli TK-3 penicillinase; PCG = 100; 30° C., pH 7.0
Procedure: as §1

[5] = tested on: Penicillinase (K. pneumoniae Y-4); assay: Stability to β-lactamase, iodometry (Perret); assay type: biochemical; settings: K. pneumoniae Y-4 penicillinase; PCG = 100; 30° C., pH 7.0
Procedure: as §1

[6] = tested on: Penicillinase (P. aeruginosa GN-3379); assay: Stability to β-lactamase, iodometry (Perret); assay type: biochemical; settings: P. aeruginosa GN-3379 penicillinase; PCG = 100; 30° C., pH 7.0
Procedure: as §1

[7] = biological target: T3, β-lactamase (cephalosporinase, E. coli GN-5482) (Escherichia coli, UniProt P00811); assay: Inhibitory dose to β-lactamase, iodometric method of Perret, Cefazolin as substrate; assay type: biochemical
T3 construct: producing bacteria; endogenous in cells; host or cells: E. coli GN-5482

[8] = biological target: T4, β-lactamase (cephalosporinase, S. marcescens W-8) (Serratia marcescens, UniProt P18539); assay: as above; assay type: biochemical; settings: read-out: Inhibitory dose to β-lactamase (ID50) (converted)
T4 construct: producing bacteria; endogenous in cells; host or cells: S. marcescens W-8

[9] = biological target: T5, β-lactamase (cephalosporinase, C. freundii GN-346) (Citrobacter freundii, UniProt P05193); assay: as above; assay type: biochemical; settings: read-out: Inhibitory dose to β-lactamase (ID50) (converted)
T5 construct: producing bacteria; endogenous in cells; host or cells: C. freundii GN-346

[10] = tested on: S. marcescens W-35; assay: Infection-protective activity in mice; assay type: in vivo, ICR-strain mice (male); settings: subcutaneous, one hour after intraperitoneal inoculation; challenge dose 2.5 × 10^5 cells/mouse; ICR mice
Source text: Four-week old ICR-strain mice (male) in groups, each group consisting of five mice, were inoculated intraperitoneally with a prescribed quantity of a pathogenic bacterium suspended in 5% mucin. After one hour from the inoculation, the mice were subcutaneously administered with the test preparation to determine the infection-protective activity. The figures in Table 4 represent the protective activity in terms of ED50.

[11] = Toxicity (LD50); settings: mouse, in vivo; ICR-strain mice; intravenous
Source text: The 7α-methoxycephalosporins of this invention are low-toxic.

T5 sequence (P05193 21-381): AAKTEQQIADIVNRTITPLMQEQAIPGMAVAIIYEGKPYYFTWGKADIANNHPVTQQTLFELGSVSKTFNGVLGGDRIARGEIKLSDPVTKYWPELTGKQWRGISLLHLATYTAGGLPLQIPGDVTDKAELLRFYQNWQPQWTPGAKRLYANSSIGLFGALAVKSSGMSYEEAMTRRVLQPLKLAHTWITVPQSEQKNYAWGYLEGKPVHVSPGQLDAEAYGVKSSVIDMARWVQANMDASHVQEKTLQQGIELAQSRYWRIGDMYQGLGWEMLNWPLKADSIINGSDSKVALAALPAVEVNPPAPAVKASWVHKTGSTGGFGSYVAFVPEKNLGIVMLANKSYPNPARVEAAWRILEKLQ
T3 sequence (P00811 20-377): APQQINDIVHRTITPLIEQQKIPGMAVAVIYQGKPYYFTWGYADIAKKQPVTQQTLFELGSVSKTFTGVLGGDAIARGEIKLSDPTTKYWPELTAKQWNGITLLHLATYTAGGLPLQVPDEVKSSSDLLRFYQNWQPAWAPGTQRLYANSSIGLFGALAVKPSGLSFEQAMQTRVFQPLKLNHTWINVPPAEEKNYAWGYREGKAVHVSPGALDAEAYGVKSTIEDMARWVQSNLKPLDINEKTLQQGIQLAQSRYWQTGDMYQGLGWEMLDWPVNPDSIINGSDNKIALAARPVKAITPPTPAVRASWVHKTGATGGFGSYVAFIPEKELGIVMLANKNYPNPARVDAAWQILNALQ
T1 sequence (P00811 20-377): as above
T4 sequence (P18539 22-376): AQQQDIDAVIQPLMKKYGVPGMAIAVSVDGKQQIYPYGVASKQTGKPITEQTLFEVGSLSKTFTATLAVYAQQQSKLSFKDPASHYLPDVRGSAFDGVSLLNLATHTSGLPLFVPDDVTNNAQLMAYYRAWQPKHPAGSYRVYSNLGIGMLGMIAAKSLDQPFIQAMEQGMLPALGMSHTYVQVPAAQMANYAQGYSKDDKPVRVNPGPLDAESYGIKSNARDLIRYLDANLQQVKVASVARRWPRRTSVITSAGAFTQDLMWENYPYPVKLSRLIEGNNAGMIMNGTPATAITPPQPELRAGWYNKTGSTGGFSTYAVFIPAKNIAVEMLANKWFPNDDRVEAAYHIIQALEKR
T2 sequence (P18539 22-376): as above

CCN1CCN(C(=O)NC(C(=O)N[C@]2(OC)C(=O)N3C(C(=O)O)=C(CSc4nnnn4C)CS[C@@H]32)c2cccs2)C(=O)C1=O (stereo partly drawn) [Example T-1414]
MIC ([1]; inoculated bacteria quantity 10^6 cells/ml (Table 4)): 6.25 µg/mL (≈ 9.39 µM)
MIC ([1]; inoculated bacteria quantity 10^8 cells/ml (Table 4)): 12.5 µg/mL (≈ 18.8 µM)
Stability to β-lactamase, relative degree of hydrolysis [2]: < 0.1
Stability to β-lactamase, relative degree of hydrolysis [3]: 0.02
Stability to β-lactamase, relative degree of hydrolysis [4]: < 0.003
Stability to β-lactamase, relative degree of hydrolysis [5]: < 0.09
Stability to β-lactamase, relative degree of hydrolysis [6]: 0.03
IC50 [7]: 1230 nM
IC50 [8]: 811 nM
IC50 [9]: 2550 nM
ED50 (infection-protective activity) [10]: 0.84 mg/mouse
LD50 [11]: ≥ 5000 mg/kg
